Data from patent US20250170183A1, “METHOD FOR ENRICHING MUSE CELLS AND OBTAINING EXOSOMES, MICROVESICLES OR THE SECRETOME THEREFROM” (priority 2022, published 2025).

System: Carrageenan-induced paw edema
Assay: Carrageenan-induced paw edema model
Format: in vivo, C57BL/6 mice
Conditions: single i.p. dose, 1.5 hours after administration; FIG. 5
Description: In order to assess the anti-inflammatory effect of the Muse cell derived EVs, various EV fractions were analyzed for anti-inflammatory efficacy using the paw edema model [16].
In our initial experiment, fifty-five female C57BL/6 mice (Charles River, Eastern Europe) were randomly assigned to one of five treatment groups: • (1) (−) Control (PBS) • (2) (+) Control (Dexamethasone: 20-30 mg/kg) • (3) EV100 (1, 10, or 100 billion EVs) • (4) EV500 (1, 10, or 100 billion EVs) • (5) Muse cell enriched culture (100K, 1 million, or 10 million cells)
Paw edema was induced in each animal by intra-plantar injection of 20 μl of a 1% (w/v) aqueous Carrageenan solution (SIGMA Aldrich) into the right hind paw.
Thirty minutes after the carrageenan injection, each animal received one dose of the control agent (treatment groups 1-2) or experimental agents (treatment groups 3-5) according to the respective assigned treatment group. The agent was administered by intra peritoneal (i.p.) injection. PBS was also used to resuspend EV100 and EV500 samples.
The intensity of the edema development and/or the amelioration thereof was assessed by measuring the paw width (the distance from one outer finger to the opposite outer finger) or paw thickness of the treated paw prior to treatment administration, and 2 h, 24 h, 48 h, and 72 h after administration of the control and experimental agents. […]

## C[C@@H]1C[C@H]2[C@@H]3CCC4=CC(=O)C=C[C@]4(C)[C@@]3(F)[C@@H](O)C[C@]2(C)[C@@]1(O)C(=O)CO [dexamethasone]
  paw thickness, immediate response: no effect
